Measured values from US9095631B2, “Tetrahydroisoquinoline compounds for use in the diagnosis and treatment of neurodegenerative diseases” (UNIVERSITA DEGLI STUDI DI BARI “ALDO MORO”, priority 2011, dated 2015).

Key:
MRP1 = target: T1, MRP1 (Homo sapiens, UniProt P33527); test: Inhibition of the transport of Calcein-AM on MDCK cell lines overexpressing MDR proteins (MRP1); type: cell-based; conditions: for EC50: Calcein-AM transport inhibition, MDCK cells overexpressing MRP1
T1 construct: expressed in transfected cells; host or cells: MDCK
T1 sequence (P33527 whole entry): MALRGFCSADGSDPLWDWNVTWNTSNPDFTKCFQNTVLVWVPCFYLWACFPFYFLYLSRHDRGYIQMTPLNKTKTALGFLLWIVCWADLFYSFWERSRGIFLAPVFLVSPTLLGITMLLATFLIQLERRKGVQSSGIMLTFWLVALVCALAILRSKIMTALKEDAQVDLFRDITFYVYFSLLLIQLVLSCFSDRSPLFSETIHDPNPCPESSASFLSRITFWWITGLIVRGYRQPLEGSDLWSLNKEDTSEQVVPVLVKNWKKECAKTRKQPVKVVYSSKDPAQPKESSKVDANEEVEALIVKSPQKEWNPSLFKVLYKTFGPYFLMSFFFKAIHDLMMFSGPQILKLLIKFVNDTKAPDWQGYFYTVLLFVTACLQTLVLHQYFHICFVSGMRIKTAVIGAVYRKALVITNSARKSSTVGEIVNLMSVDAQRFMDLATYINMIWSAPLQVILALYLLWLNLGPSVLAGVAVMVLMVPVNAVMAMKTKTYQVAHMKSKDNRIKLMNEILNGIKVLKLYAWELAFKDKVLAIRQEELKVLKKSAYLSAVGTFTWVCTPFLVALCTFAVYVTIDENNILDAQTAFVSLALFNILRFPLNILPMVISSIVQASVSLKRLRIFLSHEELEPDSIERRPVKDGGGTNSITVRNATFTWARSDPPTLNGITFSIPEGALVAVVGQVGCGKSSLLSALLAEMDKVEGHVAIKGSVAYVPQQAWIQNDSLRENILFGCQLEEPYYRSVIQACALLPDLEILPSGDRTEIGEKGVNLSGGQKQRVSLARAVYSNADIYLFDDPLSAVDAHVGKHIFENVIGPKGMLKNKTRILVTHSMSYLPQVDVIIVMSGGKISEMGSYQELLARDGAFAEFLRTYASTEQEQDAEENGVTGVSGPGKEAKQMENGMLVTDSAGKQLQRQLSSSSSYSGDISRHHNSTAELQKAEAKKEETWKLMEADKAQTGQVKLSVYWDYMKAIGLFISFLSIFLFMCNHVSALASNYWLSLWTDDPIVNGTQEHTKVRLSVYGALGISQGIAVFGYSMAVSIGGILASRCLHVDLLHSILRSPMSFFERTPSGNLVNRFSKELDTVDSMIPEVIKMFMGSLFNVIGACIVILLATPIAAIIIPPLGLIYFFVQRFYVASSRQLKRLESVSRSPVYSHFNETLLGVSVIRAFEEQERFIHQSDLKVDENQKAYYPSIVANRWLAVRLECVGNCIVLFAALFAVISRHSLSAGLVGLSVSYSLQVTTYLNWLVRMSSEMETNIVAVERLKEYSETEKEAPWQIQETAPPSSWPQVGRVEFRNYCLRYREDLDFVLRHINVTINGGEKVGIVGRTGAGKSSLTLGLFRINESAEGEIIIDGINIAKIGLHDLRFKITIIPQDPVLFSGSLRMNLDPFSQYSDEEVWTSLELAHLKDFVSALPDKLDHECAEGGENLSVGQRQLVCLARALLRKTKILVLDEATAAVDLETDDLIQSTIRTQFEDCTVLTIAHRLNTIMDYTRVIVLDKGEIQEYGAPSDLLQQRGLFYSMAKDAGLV
Description: (§1) 3) Inhibition of the Transport of Calceina-AM and of Rhodamine-123 on MDCK Cell Lines Overexpressing MDR Proteins.
(§2) In this assay the inhibition of the transport of a BCRP fluorescent substrate, Rhodamina-123, or of a P-gp or MRP1 profluorescent substrate, Calcein-AM, is determined.
(§3) Calcein-AM, entering the cell membrane is […] by citosolic esterase to fluorescent calcein (that is not a P-gp substrate) leading to a fluorescent signal. Therefore, the inhibition of the efflux pump will be directly correlated to the fluorescent signal due to the cell accumulation of Calcein-AM (see Feng, B., et al., 2008; Drug Metab. Dispos. 36, 268-275).

P-gp [1] = target: T2, P-gp (Homo sapiens, UniProt P08183); test: Apparent Permeability Determination (Papp) on Caco-2 cells overexpressing P-gp; type: in vitro ADME; conditions: ratio Papp-BA/Papp-AB, 18-20 transported by P-gp, 2-18 modulator, 1-2 not transported
T2 sequence (P08183 whole entry): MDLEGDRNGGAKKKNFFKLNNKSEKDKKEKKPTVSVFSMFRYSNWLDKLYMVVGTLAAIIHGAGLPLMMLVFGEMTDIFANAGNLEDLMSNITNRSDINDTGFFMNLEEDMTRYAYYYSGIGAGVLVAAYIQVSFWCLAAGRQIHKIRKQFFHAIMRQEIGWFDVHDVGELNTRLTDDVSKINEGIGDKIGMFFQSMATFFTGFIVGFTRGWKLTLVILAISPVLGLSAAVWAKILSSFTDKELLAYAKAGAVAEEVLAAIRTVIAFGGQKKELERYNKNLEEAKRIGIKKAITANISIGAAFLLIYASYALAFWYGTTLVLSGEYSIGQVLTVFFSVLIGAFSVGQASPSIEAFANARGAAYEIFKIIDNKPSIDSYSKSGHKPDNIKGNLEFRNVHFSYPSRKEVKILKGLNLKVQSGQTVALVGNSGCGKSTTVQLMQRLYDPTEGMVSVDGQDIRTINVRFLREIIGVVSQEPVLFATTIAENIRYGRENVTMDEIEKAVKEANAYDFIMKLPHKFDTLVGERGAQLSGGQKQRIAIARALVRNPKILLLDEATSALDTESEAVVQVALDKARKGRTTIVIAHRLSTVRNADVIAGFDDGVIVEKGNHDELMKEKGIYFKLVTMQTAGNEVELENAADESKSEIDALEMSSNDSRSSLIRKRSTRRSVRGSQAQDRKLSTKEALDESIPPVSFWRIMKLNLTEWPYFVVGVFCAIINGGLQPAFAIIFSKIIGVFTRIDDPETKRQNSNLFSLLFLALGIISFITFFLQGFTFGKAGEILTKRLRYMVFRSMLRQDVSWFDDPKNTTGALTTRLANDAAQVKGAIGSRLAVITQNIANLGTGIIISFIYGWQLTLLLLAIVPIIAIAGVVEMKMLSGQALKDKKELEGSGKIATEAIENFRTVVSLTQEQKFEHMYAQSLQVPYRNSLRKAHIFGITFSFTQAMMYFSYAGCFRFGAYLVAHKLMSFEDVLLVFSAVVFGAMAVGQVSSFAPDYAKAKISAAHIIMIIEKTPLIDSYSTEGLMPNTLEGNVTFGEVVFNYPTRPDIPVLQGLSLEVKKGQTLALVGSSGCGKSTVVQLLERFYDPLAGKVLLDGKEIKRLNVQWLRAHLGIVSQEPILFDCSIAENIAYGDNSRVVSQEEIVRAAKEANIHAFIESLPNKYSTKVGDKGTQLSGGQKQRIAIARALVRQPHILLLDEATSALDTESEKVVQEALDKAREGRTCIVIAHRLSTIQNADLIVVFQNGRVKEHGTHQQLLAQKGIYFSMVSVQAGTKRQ
Description: 1) Apparent Permeability Determination (Papp)
This assay is carried out on colon adenocarcinoma cell line (Caco-2) overexpressing P-gp, a cell model usually employed for the permeability study. In this experiment Apparent Permeability (Papp) is determined both in basolateral/apical direction (Papp-BA) and in apical/basolateral direction (Papp-AB). The BA/AB ratio allow to discriminate if a ligand is transported by P-gp (BA/AB ratio between 18 and 20), or not (BA/AB ratio between 1 and 2). For BA/AB ratio between 2 and 18 compounds can be classified as modulators (see Polli, J. V et al., 2001, J. Pharmacol. Exp. Ther. 299, 620-628).

P-gp [2] = target: T2, P-gp; test: Inhibition of the transport of Calcein-AM on MDCK cell lines overexpressing MDR proteins (P-gp); type: cell-based; set-up: expressed in transfected cells; host or cells: MDCK; conditions: MDCK cells overexpressing P-gp
Description: as §1, §2, §3

Row | SMILES | activity towards MRP1 (in words) (MRP1) | EC50 (MRP1) | efflux ratio (P-gp [1]) | EC50 (P-gp [2])
1 | COc1cc2c(cc1OC)CN(Cc1csc(-c3ccc4cc(Br)ccc4c3)n1)CC2 [R2 = H, R1 = Br, X = S, (2-((2-(2-Bromonaftalen-6-il)thiazol-4-il)metil)-1,2,3,4-tetraidro-6,7-dimetossiisochinolina] | – | > 100 µM | 6 | 3.7 µM
2 | COc1cc2c(cc1OC)CN(Cc1coc(-c3ccc4ccccc4c3)n1)CC2 [R2 = H, R1 = H, X = O, 1,2,3,4-tetrahydro-6,7-dimethoxy-2-((2-(naphthalen-6-yl)oxazol-4-yl)methyl)isoquinoline] | – | 33.2 µM | 0.4 | 2.7 µM
3 | COc1ccc2cc(-c3nc(CN4CCc5cc(OC)c(OC)cc5C4)cs3)ccc2c1 [R2 = H, R1 = OCH3, X = S, 1,2,3,4-tetrahydro-6,7-dimethoxy-2-((2-(2-methoxynaphthalen-6-yl)thiazol-4-yl)methyl)isoquinoline] | – | > 100 µM | 6 | 1 µM

Further lines, results first:

Row | activity towards MRP1 (in words) (MRP1) | EC50 (MRP1) | efflux ratio (P-gp [1]) | EC50 (P-gp [2]) | SMILES
4 | inactive | > 100 µM | 1.6 | 2.8 µM | COc1cc2c(cc1OC)CN(Cc1coc(-c3ccc4cc(O)ccc4c3)n1)CC2 [R2 = H, R1 = OH, X = O, 2-((2-(2-hydroxynaphthalen-6-yl)oxazol-4-yl)methyl)-1,2,3,4-tetrahydro-6,7-dimethoxyisoquinoline]
5 | – | 31.8 µM | 0.8 | 5.2 µM | COc1cc2c(cc1OC)CN(Cc1coc(-c3ccc4cc(F)ccc4c3)n1)CC2 [R2 = H, R1 = F, X = O, 2-((2-(2-fluoronaphthalen-6-yl)oxazol-4-yl)methyl)-1,2,3,4-tetrahydro-6,7-dimethoxyisoquinoline]
